What was measured:
[1] = system: normal cord blood CD34+ cells engrafted in Rag2−/−γc−/− mice; experiment: Normal HSPC in vivo model (cord blood CD34+ cell engrafted mice); set-up: species or system mouse; settings: 10 mg/kg versus vehicle
Procedure: All animal studies were performed in accordance with UCSD and NIH-equivalent ethical guidelines and were approved by the Institutional Animal Care and Use Committee (IACUC protocol # S06015). For all in vivo experiments, animals of both genders were utilized. […] At 7-28 weeks post-transplant (7-36 weeks old), mice were euthanized, and peripheral blood and single cell suspensions of hematopoietic organs were analyzed for human cell engraftment by FACS. […] Treatment was initiated at 8 weeks post-transplant, and at 10 weeks post-transplant, mice were euthanized, and peripheral blood and single cell suspensions of hematopoietic organs were analyzed for human cell engraftment by FACS. […]
Flow cytometric analysis was performed on single cell suspensions from each hematopoietic tissue essentially as for primary patient samples, and frequencies of total live human CD45+ cells, CD45+ CD34+ CD38− Lin− (stem) cells, CD45+ CD34+ CD38+ Lin− (progenitor) cells, and CD45+/CD33+ (leukemic blasts) were determined in each tissue. […]

[2] = system: human CD34+ cell fractions from spleens and bone marrow of AML-37 engrafted mice; experiment: RNA-Seq of human CD34+ cells pooled from spleens and bone marrow of treated sAML-engrafted mice; format: in vivo
Procedure: In vivo molecular response to therapeutic splicing modulation. RNA-seq analysis was performed in human CD34+ cell fractions isolated from spleens and bone marrow of 17S-FD-895-treated sAML-engrafted mice. […] The data are set forth in Table 4 following, which formed the basis for calculation of FIG. 17G.
Xenograft sequencing data of 2×150 bp paired end reads were trimmed using cutadapt 1.8.1, aligned using STAR 2.5.0b against the GRCh37 reference FASTA sequence with the Ensembl GRCh37.75 GTF as a splice junction source. Strandedness was inferred using modulate “infer_experiment.py” from the RSeQC package (Wang et al., 2012). Then, transcripts were quantified using Cufflinks v2.2.1 (Trapnell et al., 2010) against the Ensembl GRCh37.75 GTF reference with bias correction against the GRCh37 reference FASTA. This yielded Cufflinks FPKM values. Isoforms sharing gene names were summed to yield gene FPKMs. FPKM values were transformed to generate log 2(FPKM+1) for all transcripts in the sAML isoform signature (FIGS. 11D, 11E, 12D), comparing vehicle versus 10 mg/kg treatment groups for spleen and bone marrow. Then, a heatmap was generated using all transcripts showing a L2FC>0.5 in both tissues, occurring in the opposite direction of the L2FC transcript expression values in sAML versus normal age-matched controls (i.e. L2FC>1 in sAML, L2FC<−0.5 in 10 mg/kg-treated spleen and bone marrow).
Gene expression data in FPKM was submitted to GSEA to determine significant KEGG pathways, and enrichment plots describing ranked gene expression in those pathways. Additional analyses were performed using custom gene sets including genes associated with the top differentially expressed transcript signatures in aged (“aged up”) versus young (“young up”) HPC and sAML (“sAML up”) versus aged (“aged up”) HPC (FIGS. 11D, 11E, 12D). We acknowledge our use of the gene set enrichment analysis, GSEA software, and Molecular Signature Database (see website: broad.mit.edu). […]

CC[C@H](OC)[C@@H](C)[C@H]1O[C@@H]1[C@@H](O)[C@H](C)/C=C/C=C(\C)[C@H]1OC(=O)C[C@H](O)CC[C@@](C)(O)[C@@H](OC(C)=O)/C=C/[C@@H]1C (stereo in doubt) [Formula 17S-FD-895, 17S-FD-895]
total human hematopoietic cell or HSPC survival [1]: no effect | GSEA of the “aged up” signature ([2]; 10 mg/kg treated mice versus vehicle): enriched | expression of sAML-specific transcripts STAT6-016 and ITGB2-201 ([2]; higher treatment doses, bone marrow and spleen): reverted to a normal expression pattern | PTK2B transcripts ([2]; spleen and bone marrow, after treatment): decreased

Source: US10675267B2, “Methods for detection and eradication of myeloid leukemia stem cells” (priority 2015, dated 2020)
